# Measured values reported in ChEMBL document CHEMBL1132674, “Design, synthesis and DNA-cleavage of Gly-Gly-His-naphthalene diimide conjugates” (Bioorg Med Chem Lett, 1999).
# Assay: Binding constant of the compound
row,Binding constant [M⁻¹],Compound
1,100000,CN(CCCN)CCCN1C(=O)c2ccc3c4c(ccc(c24)C1=O)C(=O)N(CCCN(C)CCCNC(=O)C(Cc1c[nH]cn1)NC(=O)CNC(=O)CN)C3=O (configuration not stated)
2,100000,CN(CCCNC(=O)C(Cc1c[nH]cn1)NC(=O)CNC(=O)CN)CCCN1C(=O)c2ccc3c4c(ccc(c24)C1=O)C(=O)N(CCCN(C)CCCNC(=O)C(Cc1c[nH]cn1)NC(=O)CNC(=O)CN)C3=O (configuration not stated)
